From US20250230193A1, “CYCLIC COMPOUND HAVING SELECTIVE KRAS INHIBITORY EFFECT ON HRAS AND NRAS” (CHUGAI SEIYAKU KABUSHIKI KAISHA, priority 2022, published 2025) come the findings set out here.

Experiment [1] deals with GDP-bound NRAS wild-type protein (Homo sapiens, UniProt P01111). Put plainly: Binding to NRAS by surface plasmon resonance (SPR), Single Cycle Kinetics. Conditions: SPR, GDP-bound NRAS wild-type vs GDP-bound KRAS wild-type. Background: SPR reads the build-up and loss of mass on a sensor chip optically.
Chain of GDP-bound NRAS wild-type protein (P01111 whole entry): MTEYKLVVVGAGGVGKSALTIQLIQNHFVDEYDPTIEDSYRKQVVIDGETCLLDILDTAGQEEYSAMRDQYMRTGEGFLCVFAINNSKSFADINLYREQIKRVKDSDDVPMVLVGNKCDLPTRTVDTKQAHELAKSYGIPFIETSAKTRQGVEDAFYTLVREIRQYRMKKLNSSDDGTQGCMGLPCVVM
The target of experiment [2] is GDP-bound HRAS wild-type protein (Homo sapiens, UniProt P01112). Description: Binding to HRAS by surface plasmon resonance (SPR), Single Cycle Kinetics. Particulars: SPR, GDP-bound HRAS wild-type vs GDP-bound KRAS wild-type.
Chain of GDP-bound HRAS wild-type protein (P01112 whole entry): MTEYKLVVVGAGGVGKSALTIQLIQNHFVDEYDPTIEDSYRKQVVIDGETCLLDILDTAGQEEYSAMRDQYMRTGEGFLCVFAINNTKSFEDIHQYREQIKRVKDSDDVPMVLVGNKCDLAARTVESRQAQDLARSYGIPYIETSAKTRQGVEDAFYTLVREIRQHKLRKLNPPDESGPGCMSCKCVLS

Structures are written as SMILES.

In the case of `CCOC[C@H]1C(=O)N[C@@H]([C@@H](C)CC)C(=O)N(C)CC(=O)N(C)[C@H]2C/C=C\CCN(C2=O)[C@@H](CC2CCC(F)(F)CC2)C(=O)N(C)CC(=O)N[C@@H](CCc2ccc(C(F)(F)F)c(OC)c2)C(=O)N2C[C@@H](C)C[C@H]2C(=O)NC2(CC(C)(C)C2)C(=O)N(C)[C@@H](C(CC)CC)C(=O)N(C)[C@H](C(=O)N(C)C)CC(=O)N1C` [PP2458], in experiment [1], the “NRAS/KRAS (ratio of KD value with respect to NRAS to KD value with respect to KRAS)” value is “A (a compound having 10 or more and less than 20 is denoted as A)”. Further, the “HRAS/KRAS (ratio of KD value with respect to HRAS to KD value with respect to KRAS)” value in experiment [2] was “A (a compound having 10 or more and less than 20 is denoted as A)”.

As to `CCOC[C@H]1C(=O)N[C@@H]([C@@H](C)CC)C(=O)N(C)CC(=O)N(C)[C@H]2C/C=C\CCN(C2=O)[C@@H](CC2CCC(F)(F)CC2)C(=O)N(C)CC(=O)N[C@@H](CCc2ccc(C(F)(F)F)c(Cl)c2)C(=O)N2C[C@H](OCC)C[C@H]2C(=O)NC2(CC(C)(C)C2)C(=O)N(C)[C@@H](C(CC)CC)C(=O)N(C)[C@H](C(=O)N(C)C)CC(=O)N1C` [PP2460], the “NRAS/KRAS (ratio of KD value with respect to NRAS to KD value with respect to KRAS)” value in experiment [1] was “A (a compound having 10 or more and less than 20 is denoted as A)”. Further, the “HRAS/KRAS (ratio of KD value with respect to HRAS to KD value with respect to KRAS)” value in experiment [2] is “A (a compound having 10 or more and less than 20 is denoted as A)”.

As to `CCCOC[C@H]1C(=O)N[C@@H]([C@@H](C)CC)C(=O)N(C)CC(=O)N(C)[C@H]2C/C=C\CCN(C2=O)[C@@H](Cc2ccc(C)cc2)C(=O)N(C)CC(=O)N[C@@H](CCc2ccc(C(F)(F)F)c(OC)c2)C(=O)N2C[C@@H](C)C[C@H]2C(=O)NC2(CC(C)(C)C2)C(=O)N(C)[C@@H](C2CCCC2)C(=O)N(C)[C@H](C(=O)N(C)CC)CC(=O)N1C` [PP2461], in experiment [1], the “NRAS/KRAS (ratio of KD value with respect to NRAS to KD value with respect to KRAS)” value is “A (a compound having 10 or more and less than 20 is denoted as A)”. Moreover, the “HRAS/KRAS (ratio of KD value with respect to HRAS to KD value with respect to KRAS)” value in experiment [2] is “A (a compound having 10 or more and less than 20 is denoted as A)”.

With `CCOC[C@H]1C(=O)N[C@@H]([C@@H](C)CC)C(=O)N(C)CC(=O)N(C)[C@H]2C/C=C\CCN(C2=O)[C@@H](CC2CCC(F)(F)CC2)C(=O)N(C)CC(=O)N[C@@H](CCc2cc(F)c(C(F)(F)F)c(F)c2)C(=O)N2C[C@@H](C)C[C@H]2C(=O)NC2(CC(C)(C)C2)C(=O)N(C)[C@@H](C(CC)CC)C(=O)N(C)[C@H](C(=O)N(C)C)CC(=O)N1C` [PP2462], in experiment [1], the “NRAS/KRAS (ratio of KD value with respect to NRAS to KD value with respect to KRAS)” value was “A (a compound having 10 or more and less than 20 is denoted as A)”. Further, in experiment [2], the “HRAS/KRAS (ratio of KD value with respect to HRAS to KD value with respect to KRAS)” value was “A (a compound having 10 or more and less than 20 is denoted as A)”.

Consider `CCCOC[C@H]1C(=O)N[C@@H]([C@@H](C)CC)C(=O)N(C)CC(=O)N(C)[C@H]2C/C=C\CCN(C2=O)[C@@H](Cc2ccc(C)cc2)C(=O)N(C)CC(=O)N[C@@H](CCc2ccc(C(F)(F)F)c(OC)c2)C(=O)N2C[C@H](OCC)C[C@H]2C(=O)NC2(CC(C)(C)C2)C(=O)N(C)[C@@H](C2CCCC2)C(=O)N(C)[C@H](C(=O)N(C)CC)CC(=O)N1C` [PP2463], for which, in experiment [1], the “NRAS/KRAS (ratio of KD value with respect to NRAS to KD value with respect to KRAS)” value was “A (a compound having 10 or more and less than 20 is denoted as A)”. In addition, the “HRAS/KRAS (ratio of KD value with respect to HRAS to KD value with respect to KRAS)” value in experiment [2] was “A (a compound having 10 or more and less than 20 is denoted as A)”.

For `CCCOC[C@H]1C(=O)N[C@@H]([C@@H](C)CC)C(=O)N(C)CC(=O)N(C)[C@H]2C/C=C\CCN(C2=O)[C@@H](CC2CCC(F)(F)CC2)C(=O)N(C)CC(=O)N[C@@H](CCc2ccc(C(F)(F)F)c(OC)c2)C(=O)N2C[C@H](OCC)C[C@H]2C(=O)NC2(CC(C)(C)C2)C(=O)N(C)[C@@H](C(CC)CC)C(=O)N(C)[C@H](C(=O)N(C)C)CC(=O)N1C` [PP2464], the “NRAS/KRAS (ratio of KD value with respect to NRAS to KD value with respect to KRAS)” value in experiment [1] is “A (a compound having 10 or more and less than 20 is denoted as A)”. Besides, the “HRAS/KRAS (ratio of KD value with respect to HRAS to KD value with respect to KRAS)” value in experiment [2] was “A (a compound having 10 or more and less than 20 is denoted as A)”.

Turning to `CCOC[C@H]1C(=O)N[C@@H]([C@@H](C)CC)C(=O)N(C)CC(=O)N(C)[C@H]2C/C=C\CCN(C2=O)[C@@H](Cc2ccc(C)cc2)C(=O)N(C)CC(=O)N[C@@H](CCc2ccc(C(F)(F)F)c(Cl)c2)C(=O)N2C[C@@H](C)C[C@H]2C(=O)NC2(CC(C)(C)C2)C(=O)N(C)[C@@H](C2CCCC2)C(=O)N(C)[C@H](C(=O)N(CC)CC)CC(=O)N1C` [PP2465], the “NRAS/KRAS (ratio of KD value with respect to NRAS to KD value with respect to KRAS)” value in experiment [1] is on record as “AA (a compound having 20 or more is denoted as AA)”. Also, the “HRAS/KRAS (ratio of KD value with respect to HRAS to KD value with respect to KRAS)” value in experiment [2] was “A (a compound having 10 or more and less than 20 is denoted as A)”.

As to `CCC(CC)[C@H]1C(=O)N(C)[C@H](C(=O)N(C)C)CC(=O)N(C)[C@@H](COC)C(=O)N[C@@H]([C@@H](C)CC)C(=O)N(C)CC(=O)N(C)[C@H]2C/C=C\CCN(C2=O)[C@@H](CC2CCCCC2)C(=O)N(C)CC(=O)N[C@@H](CCc2ccc(C(F)(F)F)c(OC)c2)C(=O)N2C[C@@H](C)C[C@H]2C(=O)NC2(CC(C)(C)C2)C(=O)N1C` [PP2466], the “NRAS/KRAS (ratio of KD value with respect to NRAS to KD value with respect to KRAS)” value in experiment [1] was “A (a compound having 10 or more and less than 20 is denoted as A)”. The “HRAS/KRAS (ratio of KD value with respect to HRAS to KD value with respect to KRAS)” value in experiment [2] is “A (a compound having 10 or more and less than 20 is denoted as A)”.

As for `CCCOC[C@H]1C(=O)N[C@@H]([C@@H](C)CC)C(=O)N(C)CC(=O)N(C)[C@H]2C/C=C\CCN(C2=O)[C@@H](Cc2ccc(C)cc2)C(=O)N(C)CC(=O)N[C@@H](CCc2ccc(C(F)(F)F)c(Cl)c2)C(=O)N2C[C@@H](C)C[C@H]2C(=O)NC2(CC(C)(C)C2)C(=O)N(C)[C@@H](C2CCCC2)C(=O)N(C)[C@H](C(=O)N(C)CC)CC(=O)N1C` [PP2467], the “NRAS/KRAS (ratio of KD value with respect to NRAS to KD value with respect to KRAS)” value in experiment [1] was “A (a compound having 10 or more and less than 20 is denoted as A)”. For the same molecule, the “HRAS/KRAS (ratio of KD value with respect to HRAS to KD value with respect to KRAS)” value in experiment [2] was “B (a compound having 3 or more and less than 10 is denoted as B)”.

As for `CCO[C@@H]1C[C@H]2C(=O)NC3(CC(C)(C)C3)C(=O)N(C)[C@@H](C(CC)CC)C(=O)N(C)[C@H](C(=O)N(C)C)CC(=O)N(C)[C@@H](COC)C(=O)N[C@@H]([C@@H](C)CC)C(=O)N(C)CC(=O)N(C)[C@H]3C/C=C\CCN(C3=O)[C@@H](CC3CCCCC3)C(=O)N(C)CC(=O)N[C@@H](CCc3ccc(C(F)(F)F)c(Cl)c3)C(=O)N2C1` [PP2468], the “NRAS/KRAS (ratio of KD value with respect to NRAS to KD value with respect to KRAS)” value in experiment [1] was “AA (a compound having 20 or more is denoted as AA)”. Besides, in experiment [2], the “HRAS/KRAS (ratio of KD value with respect to HRAS to KD value with respect to KRAS)” value was “A (a compound having 10 or more and less than 20 is denoted as A)”.

For the molecule `CCCOC[C@H]1C(=O)N[C@@H]([C@@H](C)CC)C(=O)N(C)CC(=O)N(C)[C@H]2C/C=C\CCN(C2=O)[C@@H](Cc2ccc(C)cc2)C(=O)N(C)CC(=O)N[C@@H](CCc2ccc(C(F)(F)F)c(Cl)c2)C(=O)N2C[C@H](OCC)C[C@H]2C(=O)NC2(CC(C)(C)C2)C(=O)N(C)[C@@H](C2CCCC2)C(=O)N(C)[C@H](C(=O)N(C)CC)CC(=O)N1C` [PP2469], the “NRAS/KRAS (ratio of KD value with respect to NRAS to KD value with respect to KRAS)” value in experiment [1] is “A (a compound having 10 or more and less than 20 is denoted as A)”. In addition, in experiment [2], the “HRAS/KRAS (ratio of KD value with respect to HRAS to KD value with respect to KRAS)” value is “B (a compound having 3 or more and less than 10 is denoted as B)”.
